Article PMC3686795, “CD38 Structure-Based Inhibitor Design Using the N1-Cyclic Inosine 5′-Diphosphate Ribose Template” (PLoS ONE, 2013)
Where two headings read alike, the source gives them in different places. Blank lines part the entries; values can stand above or below the compound they belong to.

Assays:
[1] = target: T1, wild-type CD38 (cADPR hydrolase activity) (Homo sapiens, UniProt P28907, N100D/N164A/N209D/N219D); test: Enzymatic assay for cADPR hydrolysis (inhibition of CD38-catalyzed cADPR hydrolysis, fluorimetric cycling assay); format: biochemical; conditions: for Fold improvement of IC50 over N1-cIDPR (cADPR hydrolysis): relative to N1-cIDPR, IC50 276 µM
T1 construct: Crystal structure of human CD38 extracellular domain; made in house
T1 sequence (P28907 45-300 N100D/N164A/N209D/N219D limits assumed): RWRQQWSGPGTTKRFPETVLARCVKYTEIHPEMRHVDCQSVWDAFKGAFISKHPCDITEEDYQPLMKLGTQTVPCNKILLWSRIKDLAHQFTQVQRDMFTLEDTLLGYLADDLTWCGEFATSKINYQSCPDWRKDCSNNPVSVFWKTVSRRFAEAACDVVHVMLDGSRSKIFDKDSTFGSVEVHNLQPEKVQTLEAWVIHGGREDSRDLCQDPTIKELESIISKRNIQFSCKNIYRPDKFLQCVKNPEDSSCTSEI
Procedure: The reaction was stopped by the addition of 150 mM HCl. The precipitated protein was filtered, and the pH was neutralized with Tris base. After diluting the mixture 20-fold, the concentration of the unhydrolyzed cADPR present in the diluted reaction mixture was assayed by the fluorimetric cycling assay as previously described.

[2] = target: T2, CD38 NAD+ glycohydrolase activity (Homo sapiens, UniProt P28907, N100D/N164A/N209D/N219D); test: Enzymatic assay for NAD+ hydrolase (NADase) activity of CD38; format: biochemical; conditions: 1 µM NAD+, 0.1 µg/mL CD38, 1 min, 20–24°C, pH 4.5; Figure S1; read-out: IC50, inhibition of NADase activity of CD38
T2 construct: Crystal structure of human CD38 extracellular domain; made in house
T2 sequence (P28907 45-300 N100D/N164A/N209D/N219D limits assumed): T1 sequence (P28907 45-300 N100D/N164A/N209D/N219D limits assumed)
Procedure: The reaction was stopped by addition of 150 mM HCl, filtered and assayed for NAD^+ by the fluorimetric cycling assay as previously described.

CD38 = target: T3, CD38 (Homo sapiens, UniProt P28907, N100D/N164A/N209D/N219D); test: Incubation with CD38, nucleotide profile by HPLC (stability towards cleavage); format: in vitro ADME; conditions: HPLC after 18 h; data not shown
T3 construct: Crystal structure of human CD38 extracellular domain; made in house
T3 sequence (P28907 45-300 N100D/N164A/N209D/N219D limits assumed): T1 sequence (P28907 45-300 N100D/N164A/N209D/N219D limits assumed)

Jurkat T-cells = system: Jurkat T-cells; design: method as in PMID 15932322; conditions: cited from earlier work
[3] = system: sea urchin egg homogenate; design: method as in PMID 11535079; conditions: cited from earlier work
[4] = 1 µM cADPR, 2 µg/mL CD38, pH 4.5, inhibitor tested 0–1 mM, read-out: IC50, inhibition of cADPR hydrolysis by CD38
[5] = extrapolated beyond the tested range 0–1 mM, read-out: IC50, inhibition of cADPR hydrolysis, estimated by projection
[6] = 1 µM cADPR, 2 µg/mL CD38, 10 min, 20–24°C, pH 4.5, read-out: IC50, inhibition of cADPR hydrolysis by CD38

IC50 [1, 4]: > 1000 µM | IC50 [1, 5]: ~2000 µM
SMILES: NCCCCNc1nc2c(=O)n3cnc2n1[C@@H]1O[C@H](COP(=O)(O)OP(=O)(O)OC[C@H]2O[C@@H]3[C@H](O)[C@@H]2O)[C@@H](O)[C@H]1O [8-(4-Aminobutane)amino N1-cIDPR, 8-(4-aminobutane)amino N1-cIDPR]

IC50 [1, 6]: 7.6 µM
SMILES: Nc1nc2c(=O)n([C@@H]3O[C@H](COP(=O)(O)O)[C@@H](O)[C@H]3O)cnc2[nH]1 [8-Amino N1-IMP, 8-amino N1-IMP]

IC50 [2]: 21 µM | IC50 [1, 6]: 56 µM | Fold improvement of IC50 over N1-cIDPR (cADPR hydrolysis) [1]: over 5 fold
SMILES: Nc1nc2c(=O)n3cnc2n1[C@@H]1O[C@H](COP(=O)(O)OP(=O)(O)OC[C@H]2O[C@@H]3[C@H](O)[C@@H]2O)[C@@H](O)[C@H]1O [8-Amino N1-cIDPR, 8-amino N1-cIDPR]

IC50 [1, 6]: 201 µM
SMILES: O=c1c2nc(Br)[nH]c2ncn1[C@@H]1O[C@H](COP(=O)(O)O)[C@@H](O)[C@H]1O [8-Bromo N1-IMP]

Change in nucleotide profile after incubation with CD38 (CD38): no change in the nucleotide profile
SMILES: O=c1c2nc(Br)n3c2ncn1[C@@H]1O[C@H](COP(=O)(O)OP(=O)(O)OC[C@H]2O[C@@H]3[C@H](O)[C@@H]2O)[C@@H](O)[C@H]1O [8-Bromo N1-cIDPR, 8-bromo N1-cIDPR]

IC50 [1, 4]: > 1000 µM | IC50 [1, 5]: ~1240 µM
SMILES: O=c1c2nc(I)[nH]c2ncn1[C@@H]1O[C@H](COP(=O)(O)O)[C@@H](O)[C@H]1O [8-Iodo N1-IMP, 8-iodo N1-IMP]

IC50 [1, 6]: 14 µM | Fold improvement of IC50 over N1-cIDPR (cADPR hydrolysis) [1]: ~20 fold
SMILES: O=c1c2nc[nH]c2ncn1[C@@H]1O[C@H](COP(=O)(O)O)[C@@H](O)[C@H]1O [N1-IMP, N1-inosine 5′-monophosphate]

SMILES: O=c1c2ncn3c2ncn1[C@@H]1O[C@H](COP(=O)(O)OP(=O)(O)OC[C@H]2O[C@@H]3[C@H](O)[C@@H]2O)[C@@H](O)[C@H]1O [N1-cIDPR, cyclic inosine 5′-diphosphoribose]
Ca2+ release compared with cADPR (Jurkat T-cells): almost indistinguishable from Ca^2+ release induced by cADPR

IC50 [1, 6]: 129 µM
SMILES: N=c1c2ncn3c2ncn1[C@@H]1C[C@H](COP(=O)(O)OP(=O)(O)OC[C@H]2O[C@@H]3[C@H](O)[C@@H]2O)[C@@H](O)[C@H]1O [cADPcR, cyclic ADP-carbocyclic ribose, reference compound]
Ca2+ release activity [3]: potent Ca^2+ release agent
